Experimental findings from ChEMBL document CHEMBL1151274, “Halogenated helianane derivatives from the sponge Spirastrella hartmani” (2005) are described below.

Active and inactive are the calls of the source. The rule behind the calls is not given here.

A word on the GI50: it is the concentration giving 50% growth inhibition. Read a high GI50 as lower sensitivity of the cells.

Holding throughout (type): functional
One assay relates to MDA-MB-231. Description: Cytotoxicity against human MDA-MB-231 cells by sulforhodamine B assay. (Sulforhodamine B stains cellular protein and so reports cell mass.)
The subject of a further assay is A549. Description: Cytotoxicity against human A549 cells by sulforhodamine B assay.
Another assay concerns HT-29. Put plainly: Cytotoxicity against human HT-29 cells by sulforhodamine B assay.

In the case of `COc1cc2c(cc1O)CCN[C@]21CS[C@@H]2c3c(OC(C)=O)c(C)c4c(c3[C@H](COC1=O)N1[C@@H]2[C@H]2c3c(cc(C)c(OC)c3O)C[C@@H]([C@@H]1O)N2C)OCO4` [TRABECTEDIN], the GI50 in the assay with MDA-MB-231 amounted to 0.0184 µM; in the assay with A549 it was 0.0263 µM; in the assay with HT-29 it was 0.0197 µM.
`Cc1cc2c(cc1Cl)[C@@H](C)CCCC(C)(C)O2`: the GI50 in the assay on MDA-MB-231 was 37.6 µM; with A549, 37.2 µM; with HT-29, 37.6 µM.
Turning to `Cc1cc2c(cc1Br)[C@@H](C)CCCC(C)(C)O2`, the outcome with MDA-MB-231, in the assay on A549 and in the assay on HT-29 was inactive.
